According to patent publication US11964953B2, “Substituted aminothiazoles as DGKzeta inhibitors for immune activation” (Bayer Aktiengesellschaft, priority 2020, dated 2024):
pIC50: −log10 of the molar value.

Biological target: human DGKζ (Homo sapiens (Human), UniProt Q13574)
Test: Human DGKζ kinase activity inhibition assay (ADP-Glo)
Format: biochemical
Details: in vitro human DGKζ kinase activity inhibition assay; read-out: IC50
How it was run: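 ADP-Glo luminescence, reflecting ADP produced, served as the readout of activity. Full-length human DGKζ, FLAG-tagged at the C-terminus and insect-cell expressed, was used; lipid substrate mix was sonicated with octyl-β-D-glucopyranoside in 50 mM MOPS pH 7.4.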

Chain of human DGKζ (Q13574 other isoform, or with tags, fused parts or gaps): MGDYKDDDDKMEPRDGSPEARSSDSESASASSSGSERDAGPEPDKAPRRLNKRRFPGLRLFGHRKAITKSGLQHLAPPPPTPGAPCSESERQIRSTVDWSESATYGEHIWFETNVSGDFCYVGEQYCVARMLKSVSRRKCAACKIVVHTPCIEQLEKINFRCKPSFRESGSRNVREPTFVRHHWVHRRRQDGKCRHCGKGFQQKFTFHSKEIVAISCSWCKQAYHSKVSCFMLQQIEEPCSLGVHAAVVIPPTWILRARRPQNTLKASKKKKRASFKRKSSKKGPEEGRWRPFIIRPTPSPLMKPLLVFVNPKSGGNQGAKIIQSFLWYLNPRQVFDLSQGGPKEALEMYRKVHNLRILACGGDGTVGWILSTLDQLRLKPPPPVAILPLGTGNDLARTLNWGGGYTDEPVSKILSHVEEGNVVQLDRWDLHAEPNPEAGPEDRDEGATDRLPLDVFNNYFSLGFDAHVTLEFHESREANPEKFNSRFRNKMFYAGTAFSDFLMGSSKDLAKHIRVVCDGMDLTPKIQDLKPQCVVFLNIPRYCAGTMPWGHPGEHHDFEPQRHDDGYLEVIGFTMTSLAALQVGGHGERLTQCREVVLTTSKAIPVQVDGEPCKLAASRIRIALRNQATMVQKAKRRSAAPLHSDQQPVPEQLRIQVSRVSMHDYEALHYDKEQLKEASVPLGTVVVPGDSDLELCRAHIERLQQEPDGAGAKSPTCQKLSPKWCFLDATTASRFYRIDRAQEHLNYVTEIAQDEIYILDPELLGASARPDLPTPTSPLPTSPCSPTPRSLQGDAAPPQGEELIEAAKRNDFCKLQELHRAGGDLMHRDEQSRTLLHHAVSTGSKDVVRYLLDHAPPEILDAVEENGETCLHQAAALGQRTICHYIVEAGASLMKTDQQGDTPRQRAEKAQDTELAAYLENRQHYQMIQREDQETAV

pIC50	Compound
4.94	COc1ccc(C(=O)c2sc(N(c3ccc(F)c(F)c3)C(C)C(N)=O)nc2N)cn1 (single isomer, unassigned) [Example 52.2, 2-(N-[4-amino-5-(6-methoxypyridine-3-carbonyl)thiazol-2-yl]-3,4-difluoro-anilino)propanamide]
7.70	CC(C(N)=O)N(c1ccc(Cl)cc1)c1nc(N)c(C(=O)c2ccc(F)cc2)s1 (racemic) [Example 37, rac-2-(N-[4-amino-5-(4-fluorobenzoyl)thiazol-2-yl]-4-chloro-anillno)propanamide]
8.17	CC(C(N)=O)N(c1ccc(F)cc1)c1nc(N)c(C(=O)c2ccc(OCc3ccccc3)cc2)s1 (racemic) [Example 158, rac-2-(N-[4-amino-5-(4-benzyloxybenzoyl)thiazol-2-yl]-4-fluoro-anilino)propanamide]
6.64	Cc1nc(N(c2ccc(F)cc2)C(C)C(N)=O)sc1C(=O)c1ccccc1 (racemic) [Example 156, rac-2-(N-(5-benzoyl-4-methyl-thiazol-2-yl)-4-fluoro-anilino)propanamide]
7.01	CC1CCN(C(=O)COc2ccc(C(=O)c3sc(N(c4ccc(F)cc4)C(C)C(N)=O)nc3N)cc2)CC1 (racemic) [Example 129, rac-2-(N-[4-amino-5-(4-[2-(4-methyl-1-piperidyl)-2-oxo-ethoxy]benzoyl]thiazol-2-yl]-4-fluoro-anilino)propanamide]
7.54	CC(C(N)=O)N(c1ccc(F)cc1)c1nc(N)c(C(=O)c2ccc(N3CCC(C(F)(F)F)CC3)nc2)s1 (racemic) [Example 275, rac-2-(N-[4-amino-5-[6-[4-(trifluoromethyl)-1-piperidyl]pyridine-3-carbonyl]thiazol-2-yl]-4-fluoro-anilino)propanamide]
5.96	CC(C(N)=O)N(c1ccc(F)c(F)c1)c1nc(N)c(C(=O)c2ccc(OC(F)F)nc2)s1 (single isomer, unassigned) [Example 163.2, 2-(N-[4-amino-5-[6-(difluoromethoxy)pyridine-3-carbonyl]thiazol-2-yl]-3,4-difluoro-anilino)propanamide]
6.74	CC(C(N)=O)N(c1ccc(F)cc1)c1nc(N)c(C(=O)c2ccc(OCC(=O)Nc3ncnc4[nH]ncc34)cc2)s1 (racemic) [Example 131, rac-2-(N-[4-amino-5-[4-[2-oxo-2-(1H-pyrazolo[3,4-d]pyrimidin-4-ylamino)ethoxy]benzoyl]thiazol-2-yl]-4-fluoro-anilino)propanamide]
6.44	COc1ccc(N(c2nc(N)c(C(=O)c3ccccc3)s2)C(C)C(N)=O)cc1 (racemic) [Example 66, rac-2-(N-(4-amino-5-benzoyl-thiazol-2-yl)-4-methoxy-anilino)propanamide]
7.03	CC(C(N)=O)N(c1ccc(F)cc1)c1nc(N)c(C(=O)c2ccc(OCC(=O)NC3CCCC3)cc2)s1 (racemic) [Example 132, rac-2-(N-[4-amino-5-[4-[2-(cyclopentylamino)-2-oxo-ethoxy]benzoyl]thiazol-2-yl]-4-fluoro-anilino)propanamide]
8.24	CC(C(N)=O)N(c1nc(N)c(C(=O)c2ccc(OC(F)F)cc2)s1)c1ccc(Cl)cc1F (single isomer, unassigned) [Example 46.2, 2-(N-[4-amino-5-[4-(difluoromethoxy)benzoyl]thiazol-2-yl]-4-chloro-2-fluoro-anilino)propanamide]
5.18	CC(C(N)=O)N(c1ccc(F)cc1)c1nc(N)c(C(=O)c2ccc(OC(F)F)nc2)s1 (single isomer, unassigned) [Example 162.2, 2-(N-[4-amino-5-[6-(difluoromethoxy)pyridine-3-carbonyl]thiazol-2-yl]-4-fluoro-anilino)propanamide]
6.15	COCCNC(=O)COc1ccc(C(=O)c2sc(N(c3ccc(F)cc3)C(C)C(N)=O)nc2N)cc1 (racemic) [Example 91, rac-2-(N-(4-amino-5-[4-[2-(2-methoxyethylamino)-2-oxo-ethoxy]benzoyl]thiazol-2-yl]-4-fluoro-anilino)propanamide]
6.89	COc1ccc(C(=O)c2sc(N(c3ccc(F)cc3)C(C)C(N)=O)nc2N)c(F)c1 (racemic) [Example 23, rac-2-(N-[4-amino-5-(2-fluoro-4-methoxy-benzoyl)thiazol-2-yl]-4-fluoro-anilino)propanamide]
5.69	CC(C(N)=O)N(c1nc(N)c(C(=O)c2ccccc2)s1)c1ccc(OC(F)F)cc1Cl (racemic) [Example 242, rac-2-[N-(4-amino-5-benzoyl-thiazol-2-yl)-2-chloro-4-(difluoromethoxy)anilino]propanamide]
6.27	CC(C(N)=O)N(c1ccc(F)cc1)c1nc(N)c(C(=O)c2ccc(C(=O)NC[C@H](C)O)cc2)s1 (mixture of isomers) [Example 263, 4-[4-amino-2-(N-(2-amino-1-methyl-2-oxo-ethyl)-4-fluoro-anilino)thiazole-5-carbonyl]-N-[(2S)-2-hydroxypropyl]benzamide (mixture of stereoisomers)]
< 4.70	CC(C(N)=O)N(c1nc(N)c(C(=O)c2ccccc2)s1)c1ccccc1F (single isomer, unassigned) [Example 75.1, 2-(N-(4-amino-5-benzoyl-thiazol-2-yl)-2-fluoro-anilino)propanamide]
5.06	CC(C(N)=O)N(c1ccc(OC(F)(F)F)cc1)c1nc(N)c(C(=O)c2ccc(F)cc2)s1 (single isomer, unassigned) [Example 27.1, 2-[N-[4-amino-5-(4-fluorobenzoyl)thiazol-2-yl]-4-(trifluoromethoxy)anilino]propanamide]
6.42	COCCNC(=O)c1ccc(C(=O)c2sc(N(c3ccc(F)cc3)C(C)C(N)=O)nc2N)cc1 (racemic) [Example 264, rac-4-[4-amino-2-(N-(2-amino-1-methyl-2-oxo-ethyl)-4-fluoro-anilino)thiazole-5-carbonyl]-N-(2-methoxyethyl)benzamide]
7.66	CC(C(N)=O)N(c1ccc(C(F)F)cc1)c1nc(N)c(C(=O)c2ccc(OC(F)F)cc2)s1 (racemic) [Example 245, rac-2-[N-[4-amino-5-[4-(difluoromethoxy)benzoyl]thiazol-2-yl]-4-(difluoromethyl)anilino]propanamide]
7.36	CC(C(N)=O)N(c1ccc(F)cc1)c1nc(N)c(C(=O)c2ccc3c(c2)CCC3)s1 (racemic) [Example 31, rac-2-(N-[4-amino-5-(indane-5-carbonyl)thiazol-2-yl]-4-fluoro-anilino)propanamide]
6.70	CC(C(N)=O)N(c1ccc(C(F)(F)F)nc1)c1nc(N)c(C(=O)c2ccccc2)s1 (racemic) [Example 230, rac-2-[(4-amino-5-benzoyl-thiazol-2-yl)-[6-(trifluoromethyl)-3-pyridyl]amino]propanamide]
7.95	CC(C(N)=O)N(c1ccc(F)cc1)c1nc(N)c(C(=O)c2ccc(C(F)(F)F)cc2)s1 (racemic) [Example 42, rac-2-(N-[4-amino-5-[4-(trifluoromethyl)benzoyl]thiazol-2-yl]-4-fluoro-anilino)propanamide]
7.41	CC(C(N)=O)N(c1ccc(F)c(F)c1)c1nc(N)c(C(=O)c2ccccc2)s1 (racemic) [Example 32, rac-2-(N-(4-amino-5-benzoyl-thiazol-2-yl)-3,4-difluoro-anilino)propanamide]
6.70	CC(C(N)=O)N(c1ccc(F)cc1)c1nc(N)c(C(=O)c2ccc(OC(C)(C)C(N)=O)cc2)s1 (racemic) [Example 155, rac-2-[4-[4-amino-2-(N-(2-amino-1-methyl-2-oxo-ethyl)-4-fluoro-anilino)thiazole-5-carbonyl]phenoxy]-2-methyl-propanamide]
7.81	CC(C(N)=O)N(c1ccc(F)cc1)c1nc(N)c(C(=O)c2ccc(OC(F)(F)F)cc2)s1 (racemic) [Example 40, rac-2-(N-[4-amino-5-[4-(trifluoromethoxy)benzoyl]thiazol-2-yl]-4-fluoro-anilino)propanamide]
6.85	CC(C(N)=O)N(c1ccc(F)cc1)c1nc(N)c(C(=O)c2ccc(C#N)c(F)c2)s1 (racemic) [Example 21, rac-2-(N-[4-amino-5-(4-cyano-3-fluoro-benzoyl)thiazol-2-yl]-4-fluoro-anilino)propanamide]
6.55	CC(C(N)=O)N(c1ccc(F)cc1)c1nc(N)c(C(=O)c2ccc(OCCO)cc2)s1 (racemic) [Example 292, rac-2-(N-[4-amino-5-[4-(2-hydroxyethoxy)benzoyl]thiazol-2-yl]-4-fluoro-anilino)propanamide]
6.55	CC(C(N)=O)N(c1ccc(F)cc1)c1nc(N)c(C(=O)c2cccc(F)c2)s1 (racemic) [Example 16, rac-2-(N-[4-amino-5-(3-fluorobenzoyl)thiazol-2-yl]-4-fluoro-anilino)propanamide]
8.15	CC(C(N)=O)N(c1ccc(Cl)c(F)c1)c1nc(N)c(C(=O)c2ccc(OC(F)F)nc2)s1 (racemic) [Example 164, rac-2-(N-[4-amino-5-[6-(difluoromethoxy)pyridine-3-carbonyl]thiazol-2-yl]-4-chloro-3-fluoro-anilino)propanamide]

Compound	pIC50
CC(C(N)=O)N(c1ccc(F)cc1)c1nc(N)c(C(=O)c2ccc(OCC(=O)Nc3ccc(C#N)cc3)cc2)s1 (racemic) [Example 92, rac-2-(N-[4-amino-5-[4-[2-(4-cyanoanilino)-2-oxo-ethoxy]benzoyl]thiazol-2-yl]-4-fluoro-anilino)propanamide]	7.78
CC(C(N)=O)N(c1ccc(F)cc1)c1nc(N)c(C(=O)c2ccc(OC(F)F)cc2)s1 (single isomer, unassigned) [Example 44.2, 2-(N-[4-amino-5-[4-(difluoromethoxy)benzoyl]thiazol-2-yl]-4-fluoro-anilino)propanamide]	8.17
CC(C(N)=O)N(c1ccc(Cl)c(F)c1)c1nc(N)c(C(=O)c2ccc(C(=O)NCCOC(C)(C)C)cc2)s1 (racemic) [Example 271, rac-4-[4-amino-2-(N-(2-amino-1-methyl-2-oxo-ethyl)-4-chloro-3-fluoro-anilino)thiazole-5-carbonyl]-N-(2-tert-butoxyethyl)benzamide]	7.74
